Test results reported in PubChem BioAssay (NCI).
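Each compound was tested at five concentrations against cells in 96-well plates for 48 hours. TGI is the concentration that stops growth completely.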

Columns and labels:
Assay in all cases: inhibition of tumour cell growth, NCI panel, 48 h
MOLT-4 leukemia = test system: MOLT-4 leukemia
KM20L2 colon = test system: KM20L2 colon
SK-OV-3 ovarian = test system: SK-OV-3 ovarian
HT29 colon = test system: HT29 colon
HCT-116 colon = test system: HCT-116 colon
UO-31 renal = test system: UO-31 renal
HL-60(TB) leukemia = test system: HL-60(TB) leukemia
786-0 renal = test system: 786-0 renal
HOP-62 NSCLC = test system: HOP-62 NSCLC
LXFL 529 NSCLC = test system: LXFL 529 NSCLC
RPMI-8226 leukemia = test system: RPMI-8226 leukemia
EKVX NSCLC = test system: EKVX NSCLC
CAKI-1 renal = test system: CAKI-1 renal
SK-MEL-2 melanoma = test system: SK-MEL-2 melanoma
SNB-75 CNS = test system: SNB-75 CNS
NCI-H23 lung = test system: NCI-H23 lung
SN12C renal = test system: SN12C renal
UACC-257 melanoma = test system: UACC-257 melanoma
MALME-3M melanoma = test system: MALME-3M melanoma
XF 498 CNS = test system: XF 498 CNS
OVCAR-8 ovarian = test system: OVCAR-8 ovarian
DMS 273 small cell lung = test system: DMS 273 small cell lung
SF-539 CNS = test system: SF-539 CNS
SK-MEL-28 melanoma = test system: SK-MEL-28 melanoma
SF-268 CNS = test system: SF-268 CNS
TK-10 renal = test system: TK-10 renal
ACHN renal = test system: ACHN renal
SW-620 colon = test system: SW-620 colon
NCI-H460 lung = test system: NCI-H460 lung
A549 NSCLC = test system: A549 NSCLC
SNB-19 CNS = test system: SNB-19 CNS
SK-MEL-5 melanoma = test system: SK-MEL-5 melanoma
COLO 205 colon = test system: COLO 205 colon
RXF 393 renal = test system: RXF 393 renal
KM12 colon = test system: KM12 colon
SNB-78 CNS = test system: SNB-78 CNS
LOX IMVI melanoma = test system: LOX IMVI melanoma
UACC-62 melanoma = test system: UACC-62 melanoma
CCRF-CEM leukemia = test system: CCRF-CEM leukemia
IGROV1 ovarian = test system: IGROV1 ovarian
SR leukemia = test system: SR leukemia
HCT-15 colon = test system: HCT-15 colon
NCI-H226 lung = test system: NCI-H226 lung
K-562 leukemia = test system: K-562 leukemia
M19-MEL melanoma = test system: M19-MEL melanoma
HOP-18 NSCLC = test system: HOP-18 NSCLC
M14 melanoma = test system: M14 melanoma
OVCAR-4 ovarian = test system: OVCAR-4 ovarian
DMS 114 small cell lung = test system: DMS 114 small cell lung
DLD-1 colon = test system: DLD-1 colon
SF-295 CNS = test system: SF-295 CNS
HCC-2998 colon = test system: HCC-2998 colon
U251 CNS = test system: U251 CNS
NCI-H522 lung = test system: NCI-H522 lung
OVCAR-5 ovarian = test system: OVCAR-5 ovarian
HOP-92 NSCLC = test system: HOP-92 NSCLC
OVCAR-3 ovarian = test system: OVCAR-3 ovarian
HS 578T breast = test system: HS 578T breast
MDA-MB-231 breast = test system: MDA-MB-231 breast
PC-3 prostate = test system: PC-3 prostate
A498 renal = test system: A498 renal
MDA-N = test system: MDA-N
NCI/ADR-RES ovarian = test system: NCI/ADR-RES ovarian
MCF7 breast = test system: MCF7 breast
BT-549 breast = test system: BT-549 breast
T-47D breast = test system: T-47D breast
MDA-MB-435 = test system: MDA-MB-435
DU-145 prostate = test system: DU-145 prostate

Measured: TGI

Cn1c(=O)oc2cc(C3CCC(=O)N3Cc3csc(-c4ccccc4)n3)ccc21 (stereo not drawn)
not listed: HOP-92 NSCLC | OVCAR-3 ovarian | HS 578T breast | MDA-MB-231 breast | PC-3 prostate | A498 renal | MDA-N | NCI/ADR-RES ovarian | MCF7 breast | BT-549 breast | T-47D breast | MDA-MB-435 | DU-145 prostate
> 100 µM: all other assays above

O=c1c2cccnc2ncn1CCCN1CCCCC1
not listed: KM20L2 colon | HL-60(TB) leukemia | LXFL 529 NSCLC | RPMI-8226 leukemia | UACC-257 melanoma | HCT-15 colon | HOP-18 NSCLC | HCC-2998 colon | HS 578T breast | MDA-MB-231 breast | PC-3 prostate | A498 renal | MDA-N | NCI/ADR-RES ovarian | MCF7 breast | BT-549 breast | T-47D breast | MDA-MB-435 | DU-145 prostate
> 100 µM: all other assays above

C[n+]1cccc2ccc3cccnc3c21
96.6 µM: KM12 colon
35.1 µM: NCI-H522 lung
70 µM: COLO 205 colon | NCI-H226 lung
96.5 µM: T-47D breast
97.1 µM: SK-MEL-2 melanoma
64.3 µM: HS 578T breast
42 µM: SK-MEL-5 melanoma
75 µM: HOP-62 NSCLC
55.8 µM: SF-268 CNS
49.9 µM: MALME-3M melanoma
65.1 µM: SNB-75 CNS
not listed: KM20L2 colon | LXFL 529 NSCLC | XF 498 CNS | DMS 273 small cell lung | SNB-78 CNS | M19-MEL melanoma | HOP-18 NSCLC | DMS 114 small cell lung | DLD-1 colon
> 100 µM: all other assays above
